biological target: GST tagged IRAK-4 (Homo sapiens (Human), UniProt Q9NWZ3); test: IRAK-4 Kinase Assay (IMAP fluorescence polarization); format: biochemical; conditions: 100 μM ATP, 30 minutes at 25° C.
Method in brief: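 Activity was read by IMAP fluorescence polarization, where phosphopeptide binding to M(III) nanoparticles raises FP. The 30-minute, 25° C reaction used 100 μM ATP, 100 nM RP7030 substrate and 0.5 nM GST-IRAK-4 in pH 7.2 Tris buffer with MgCl2, DTT and Tween 20.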

Chain of GST tagged IRAK-4 (Q9NWZ3 whole entry): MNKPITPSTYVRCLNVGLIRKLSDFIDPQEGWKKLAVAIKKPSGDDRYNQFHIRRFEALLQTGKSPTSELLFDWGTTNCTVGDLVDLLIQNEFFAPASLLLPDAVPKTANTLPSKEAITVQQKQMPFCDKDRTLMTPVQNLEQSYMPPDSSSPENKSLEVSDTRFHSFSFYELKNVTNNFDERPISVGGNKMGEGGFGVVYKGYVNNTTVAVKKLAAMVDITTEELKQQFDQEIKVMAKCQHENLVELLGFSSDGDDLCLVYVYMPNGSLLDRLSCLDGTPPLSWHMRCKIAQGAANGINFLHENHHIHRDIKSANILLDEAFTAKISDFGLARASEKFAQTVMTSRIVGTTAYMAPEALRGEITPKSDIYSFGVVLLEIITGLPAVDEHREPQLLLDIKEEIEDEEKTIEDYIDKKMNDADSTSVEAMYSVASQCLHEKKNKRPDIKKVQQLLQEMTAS

SMILES	IC50 [µM]
Cc1ccc(-n2nc(-c3ccc(S(=O)(=O)N4CCOCC4)cc3)cc2NC(=O)c2cnn3cccnc23)nc1 [Example 177, N-(1-(5-methylpyridin-2-yl)-3-(4-(morpholinosulfonyl)phenyl)-1H-pyrazol-5-yl)pyrazolo[1,5-a]pyrimidine-3-carboxamide]	< 0.1
Cc1ccc(-n2nc(-c3ccc(S(=O)(=O)N4CCN(C)CC4)cc3)cc2NC(=O)c2cnn3cccnc23)nc1 [Example 178, N-(3-(4-((4-methylpiperazin-1-yl)sulfonyl)phenyl)-1-(5-methylpyridin-2-yl)-1H-pyrazol-5-yl)pyrazolo[1,5-a]pyrimidine-3-carboxamide]	< 0.1
Cc1ccc(-n2nc(-c3ccc(S(C)(=O)=O)cc3)cc2NC(=O)c2cnn3cccnc23)nc1 [Example 179, N-(1-(5-methylpyridin-2-yl)-3-(4-(methylsulfonyl)phenyl)-1H-pyrazol-5-yl)pyrazolo[1,5-a]pyrimidine-3-carboxamide]	< 0.1
Cc1ccc(-n2nc(C3CCC(N)CC3)cc2NC(=O)c2cnn3cccnc23)nc1 (stereo not shown) [Example 185, N-(3-(4-aminocyclohexyl)-1-(5-methylpyridin-2-yl)-1H-pyrazol-5-yl)pyrazolo[1,5-a]pyrimidine-3-carboxamide]	< 0.1
O=C(Nc1cc(C2CCNCC2)nn1-c1nccs1)c1cnn2cccnc12 [Example 189, N-(3-(piperidin-4-yl)-1-(thiazol-2-yl)-1H-pyrazol-5-yl)pyrazolo[1,5-a]pyrimidine-3-carboxamide]	< 0.1
Cc1ccc(-n2nc(C3CCN(S(C)(=O)=O)CC3)cc2NC(=O)c2cnn3cc(C#N)cnc23)nc1 [Example 191, 6-cyano-N-(1-(5-methylpyridin-2-yl)-3-(1-(methylsulfonyl)piperidin-4-yl)-1H-pyrazol-5-yl)pyrazolo[1,5-a]pyrimidine-3-carboxamide]	< 0.1
CNS(=O)(=O)c1ccc(-c2cc(NC(=O)c3cnn4cc(Br)cnc34)n(-c3ccc(C)cn3)n2)cc1 [Example 194, 6-bromo-N-(1-(5-methylpyridin-2-yl)-3-(4-(N-methylsulfamoyl)phenyl)-1H-pyrazol-5-yl)pyrazolo[1,5-a]pyrimidine-3-carboxamide]	< 0.1
CNS(=O)(=O)c1ccc(-c2cc(NC(=O)c3cnn4cc(Cl)cnc34)n(-c3ccc(C)cn3)n2)cc1 [Example 196, 6-chloro-N-(1-(5-methylpyridin-2-yl)-3-(4-(N-methylsulfamoyl)phenyl)-1H-pyrazol-5-yl)pyrazolo[1,5-a]pyrimidine-3-carboxamide]	< 0.1
Cc1ccc(-n2nc(N3CCN(C)CC3)cc2NC(=O)c2cnn3cccnc23)nc1 [Example 197, N-(3-(4-methylpiperazin-1-yl)-1-(5-methylpyridin-2-yl)-1H-pyrazol-5-yl)pyrazolo[1,5-a]pyrimidine-3-carboxamide]	< 0.1
[2H]C([2H])([2H])c1ccc(-n2nc(N3CCN(C)CC3)cc2NC(=O)c2cnn3cccnc23)nc1 [Example 198, N-(3-(4-methylpiperazin-1-yl)-1-(5-trideuteromethylpyridin-2-yl)-1H-pyrazol-5-yl)pyrazolo[1,5-a]pyrimidine-3-carboxamide]	< 0.1
Cc1ccc(-n2nc(N3CCN(S(C)(=O)=O)CC3)cc2NC(=O)c2cnn3cccnc23)nc1 [Example 199, N-(1-(5-methylpyridin-2-yl)-3-(4-(methylsulfonyl)piperazin-1-yl)-1H-pyrazol-5-yl)pyrazolo[1,5-a]pyrimidine-3-carboxamide]	< 0.1
[2H]C([2H])([2H])c1ccc(-n2nc(N3CCN(S(C)(=O)=O)CC3)cc2NC(=O)c2cnn3cccnc23)nc1 [Example 200, N-(1-(5-trideuteromethylpyridin-2-yl)-3-(4-(methylsulfonyl)piperazin-1-yl)-1H-pyrazol-5-yl)pyrazolo[1,5-a]pyrimidine-3-carboxamide]	< 0.1
CN1CCN(c2cc(NC(=O)c3cnn4cccnc34)n(-c3ccc(C4CC4)cn3)n2)CC1 [Example 201, N-(1-(5-cyclopropylpyridin-2-yl)-3-(4-methylpiperazin-1-yl)-1H-pyrazol-5-yl)pyrazolo[1,5-a]pyrimidine-3-carboxamide]	< 0.1
Cc1ccc(-n2nc(N3CCOCC3)cc2NC(=O)c2cnn3cccnc23)nc1 [Example 202, N-(1-(5-methylpyridin-2-yl)-3-morpholino-1H-pyrazol-5-yl)pyrazolo[1,5-a]pyrimidine-3-carboxamide]	< 0.1
Cc1ccc(-n2nc(C3CCN(C4CCCCC4)CC3)cc2NC(=O)c2cnn3cccnc23)cc1 [Example 204, N-[3-(1-cyclohexylpiperidin-4-yl)-1-(4-methylphenyl)-1H-pyrazol-5-yl]pyrazolo[1,5-a]pyrimidine-3-carboxamide]	< 0.1
Cc1ccc(-n2nc(C3CCN(C4CCOCC4)CC3)cc2NC(=O)c2cnn3cccnc23)cc1 [Example 206]	< 0.1
CCC(C)N1CCC(c2cc(NC(=O)c3cnn4cccnc34)n(-c3ccc(C)cc3)n2)CC1 (stereo not shown) [Example 209]	< 0.1
CCCC(C)N1CCC(c2cc(NC(=O)c3cnn4cccnc34)n(-c3ccc(C)cc3)n2)CC1 (stereo not shown) [Example 210]	< 0.1
COCC(C)N1CCC(c2cc(NC(=O)c3cnn4cccnc34)n(-c3ccc(C)cc3)n2)CC1 (stereo not shown) [Example 211, N-(3-(1-(1-methoxypropan-2-yl)piperidin-4-yl)-1-(p-tolyl)-1H-pyrazol-5-yl)pyrazolo[1,5-a]pyrimidine-3-carboxamide]	< 0.1
Cc1ccc(-n2nc(C3CCN(Cc4ccccc4)CC3)cc2NC(=O)c2cnn3cccnc23)cc1 [Example 218, N-[3-(1-benzylpiperidin-4-yl)-1-(4-methylphenyl)-1H-pyrazol-5-yl]pyrazolo[1,5-a]pyrimidine-3-carboxamide]	> 0.1
Cc1ccc(-n2nc(C3CCN(CC(C)C)CC3)cc2NC(=O)c2cnn3cccnc23)cc1 [Example 219, N-{1-(4-methylphenyl)-3-[1-(2-methylpropyl)piperidin-4-yl]-1H-pyrazol-5-yl}pyrazolo[1,5-a]pyrimidine-3-carboxamide]	< 0.1
CCCN1CCC(c2cc(NC(=O)c3cnn4cccnc34)n(-c3ccc(C)cc3)n2)CC1 [Example 220, N-[1-(4-methylphenyl)-3-(1-propylpiperidin-4-yl)-1H-pyrazol-5-yl]pyrazolo[1,5-a]pyrimidine-3-carboxamide]	< 0.1
Cc1ccc(-n2nc(C3CCN(CC4CC4)CC3)cc2NC(=O)c2cnn3cccnc23)cc1 [Example 221, N-{3-[1-(cyclopropylmethyl)piperidin-4-yl]-1-(4-methylphenyl)-1H-pyrazol-5-yl}pyrazolo[1,5-a]pyrimidine-3-carboxamide]	< 0.1
Cc1ccc(-n2nc(C3CCN(Cc4ccsc4)CC3)cc2NC(=O)c2cnn3cccnc23)cc1 [Example 223, N-{1-(4-methylphenyl)-3-[1-(thiophen-3-ylmethyl)piperidin-4-yl]-1H-pyrazol-5-yl}pyrazolo[1,5-a]pyrimidine-3-carboxamide]	< 0.1

same assay, conditions: 100 μM ATP, 30 minutes at 25° C.; μM

SMILES	IC50 [µM]
Cc1ccc(-n2nc(C3CC3)cc2NC(=O)c2cnn3cccnc23)nc1 [Example 180, N-(3-cyclopropyl-1-(5-methylpyridin-2-yl)-1H-pyrazol-5-yl)pyrazolo[1,5-a]pyrimidine-3-carboxamide]	> 1
Cc1ccc(-n2nc(C3(C)CC3)cc2NC(=O)c2cnn3cccnc23)nc1 [Example 181, N-(3-(1-methylcyclopropyl)-1-(5-methylpyridin-2-yl)-1H-pyrazol-5-yl)pyrazolo[1,5-a]pyrimidine-3-carboxamide]	> 1
COc1cc(NC(=O)c2cnn3cccnc23)n(-c2ccc(C)cn2)n1 [Example 182, N-(3-methoxy-1-(5-methylpyridin-2-yl)-1H-pyrazol-5-yl)pyrazolo[1,5-a]pyrimidine-3-carboxamide]	< 1
CC(C)N1CCC(c2cc(NC(=O)c3cnn4cccnc34)n(-c3ncc[nH]3)n2)CC1 [Example 187, N-(1-(1H-imidazol-2-yl)-3-(1-isopropylpiperidin-4-yl)-1H-pyrazol-5-yl)pyrazolo[1,5-a]pyrimidine-3-carboxamide]	< 1
CS(=O)(=O)N1CCC(c2cc(NC(=O)c3cnn4cccnc34)n(-c3nccn3S(C)(=O)=O)n2)CC1 [Example 188, N-(1-(1-(methylsulfonyl)-1H-imidazol-2-yl)-3-(1-(methylsulfonyl)piperidin-4-yl)-1H-pyrazol-5-yl)pyrazolo[1,5-a]pyrimidine-3-carboxamide]	> 1
CNS(=O)(=O)c1ccc(-c2cc(NC(=O)c3cnn4cc(C5CC5)cnc34)n(-c3ccc(C)cn3)n2)cc1 [Example 195, 6-cyclopropyl-N-(1-(5-methylpyridin-2-yl)-3-(4-(N-methylsulfamoyl)phenyl)-1H-pyrazol-5-yl)pyrazolo[1,5-a]pyrimidine-3-carboxamide]	< 1
Cc1ccc(-n2nc(C3CCN(C4CCN(C)CC4)CC3)cc2NC(=O)c2cnn3cccnc23)cc1 [Example 205]	> 1
Cc1ccc(-n2nc(C3CCN(C(C)c4ncccc4F)CC3)cc2NC(=O)c2cnn3cccnc23)cc1 (stereo not shown) [Example 212, N-(3-(1-(1-(3-fluoropyridin-2-yl)ethyl)piperidin-4-yl)-1-(p-tolyl)-1H-pyrazol-5-yl)pyrazolo[1,5-a]pyrimidine-3-carboxamide]	< 1
Cc1ccc(-n2nc(C3CCN(C(C)c4nccs4)CC3)cc2NC(=O)c2cnn3cccnc23)cc1 (stereo not shown) [Example 217, N-[1-(4-methylphenyl)-3-{1-[1-(1,3-thiazol-2-yl)ethyl]piperidin-4-yl}-1H-pyrazol-5-yl]pyrazolo[1,5-a]pyrimidine-3-carboxamide]	< 1
Cc1ccc(-n2nc(C3CCN(Cc4nccs4)CC3)cc2NC(=O)c2cnn3cccnc23)cc1 [Example 222, N-{1-(4-methylphenyl)-3-[1-(1,3-thiazol-2-ylmethyl)piperidin-4-yl]-1H-pyrazol-5-yl}pyrazolo[1,5-a]pyrimidine-3-carboxamide]	< 1

From US9169260B2 (MERCK SHARP & DOHME CORP., priority 2011, dated 2015)
